Test results as given in patent US20090075867A1, “Triazine compounds and compositions thereof for the treatment of cancers” (priority 2005, published 2009).

Key:
Type in all cases: cell-based
[1] = tested on: P815, murine mastocytoma cell; experiment: In vitro cytotoxicity (MTT) on P815; settings: Mus musculus
Description: (§1) This assay was performed to determine the effect of compounds of the present invention on cell cytotoxicity. Cells were incubated in presence or absence of compounds in their respective conditioned media. […] The supernatant was discarded and 100 μl of dimethylsulfoxide (DMSO) was added. Absorbance was read at […] with an ELISA Tecan SUNRISE™ plate reader. The control group consisted of cells without compounds and is referred to as 100% of viable cells. IC50 was determined using PRISM® software.
(§2) The predictive utility of cell-based cytotoxicity assays to assess the potential in vivo anticancer activity of compounds with selected cancer cell lines is well established in the art and the use of whole cells, instead of isolated protein receptors or enzymes, provides a more reliable determination of activity. See, for example, Paull et al. J. Natl. Cancer Inst. 81:1088-1092 (1989); Monks et al. J. Natl. Cancer Inst. 83:757-766 (1991); Bandes et al. J. Natl. Cancer Inst. 86:770-775 (1994); and Kamate et al. Intl. J. Cancer 100:571-579 (2002).

[2] = tested on: PBML, Peripheral Blood Mononuclear Leukocytes; experiment: In vitro cytotoxicity (MTT) on PBML; settings: Leukocyte
Description: as §1, §2

[3] = tested on: B16F10, murine melanoma cell; experiment: In vitro cytotoxicity (MTT) on B16F10; settings: Mus musculus, B16-F10
Description: as §1, §2

[4] = tested on: PC-3, human prostate carcinoma cell; experiment: In vitro cytotoxicity (MTT) on PC-3
Description: as §1, §2

[5] = tested on: NHDF, Normal Human Dermal Fibroblast; experiment: In vitro cytotoxicity (MTT) on NHDF
Description: as §1, §2

Row | Compound | IC50 ([1]; 24-hour cell culture) | IC50 ([1]; 72-hour cell culture) | IC50 ([2]; 24-hour cell culture) | IC50 ([2]; 72-hour cell culture) | IC50 ([3]; 24-hour cell culture) | IC50 ([3]; 72-hour cell culture) | IC50 ([4]; 24-hour cell culture) | IC50 ([4]; 72-hour cell culture) | IC50 ([5]; 24-hour cell culture) | IC50 ([5]; 72-hour cell culture)
1 | Nc1cccc(Nc2nc(NCCO)nc(Nc3ccc(Nc4nc(NCCO)nc(Nc5cccc(N)c5)n4)cc3)n2)c1 [Compound 4] | 86 µM | 32 µM | 100 µM | > 100 µM | 12000 nM | 37000 nM | 78 µM | 37 µM | > 100 µM | > 100 µM
2 | CN(C)c1nc(NCCc2ccc(Nc3nc(Nc4cccc(N)c4)nc(N(C)C)n3)cc2)nc(Nc2cccc(N)c2)n1 [Compound 7] | 20 µM | 1.3 µM | > 100 µM | 79 µM | 2200 nM | 3000 nM | 85 µM | 8 µM | > 100 µM | > 100 µM
3 | Nc1cccc(Nc2nc(NCCO)nc(NCc3cccc(F)c3)n2)c1 [Compound 9] | > 100 µM | 43 µM | > 100 µM | > 100 µM | > 100000 nM | 91000 nM | > 100 µM | > 100 µM | > 100 µM | > 100 µM
4 | Nc1cccc(Nc2nc(NCCNc3nc(Nc4cccc(N)c4)nc(Nc4cccc(O)c4)n3)nc(Nc3cccc(O)c3)n2)c1 [Compound 11] | 21.2 µM | 4.8 µM | – | – | 1400 nM | 6300 nM | 4.4 µM | 4.9 µM | – | –
5 | CN(C)c1nc(NCCc2ccc(Nc3nc(NCCO)nc(Nc4cccc(N)c4)n3)cc2)nc(Nc2cccc(N)c2)n1 [Compound 12] | 13.5 µM | 2.8 µM | – | – | 1200 nM | 2000 nM | 11 µM | 3.3 µM | – | –
6 | CN1CCN(c2nc(Nc3ccc(CCNc4nc(NCCO)nc(Nc5cccc(N)c5)n4)cc3)nc(Nc3cccc(N)c3)n2)CC1 [Compound 13] | 6.5 µM | 2.1 µM | – | – | 1900 nM | 2200 nM | 11 µM | 6.1 µM | – | –
7 | Nc1cccc(CCNc2nc(Nc3ccc(CCNc4nc(NCCO)nc(Nc5cccc(N)c5)n4)cc3)nc(Nc3cccc(N)c3)n2)c1 [Compound 15] | 13.4 µM | 3.3 µM | – | – | 1800 nM | 2900 nM | 10.9 µM | 4.3 µM | – | –
8 | CN(C)c1nc(Nc2ccc(CCNc3nc(NCCO)nc(Nc4cccc(N)c4)n3)cc2)nc(Nc2cccc(N)c2)n1 [Compound 16] | 12.6 µM | 2.4 µM | – | – | 500 nM | 3500 nM | 20.3 µM | 5.1 µM | – | –
9 | Nc1cccc(Nc2nc(NCCO)nc(NCCc3ccc(Nc4nc(NCCc5ccccc5N)nc(Nc5cccc(N)c5)n4)cc3)n2)c1 [Compound 17] | 14.5 µM | 1.5 µM | – | – | 1200 nM | 3600 nM | 11.6 µM | 4 µM | – | –
10 | CN1CCN(c2nc(NCCc3ccc(Nc4nc(Nc5cccc(N)c5)nc(N5CCN(C)CC5)n4)cc3)nc(Nc3cccc(N)c3)n2)CC1 [Compound 18] | 2.5 µM | 0.7 µM | – | – | 1100 nM | 600 nM | 12.2 µM | 10.3 µM | – | –
